# What was measured:
# RAW 267.4 cells [1] = assay: Osteo Assay pit formation, osteoclast-mediated bone degradation; type: cell-based, mouse
# PC3-luc cells = assay: PCa intracardiac injection model, bone destruction by CT and survival; type: in vivo, mice
# [2] = system: prostate specific antigen (PSA); assay: PSA expression by qRT/PCR in LNCaP cells; type: cell-based, human; settings: LNCaP cells in androgen depleted media
# Protocol: (§1) Cells were cultured in media depleted of androgen and after a washout of 72 hrs were treated with the synthetic androgen R1881, KBU2046, enzalutamide and/or vehicle (control), and resultant effects upon induction of the androgen-responsive gene, prostate specific antigen (PSA) were measured (FIG. 3A).
# (§2) LNCaP or VCaP cells cultured in hormone free media were treated with R1881 (R), KBU2046 (46) and/or enzalutamide (E). (FIGS. 3A and 3B) Effects on AR-responsive gene expression. PSA expression was measured by qRT/PCR, normalized to GAPDH and expressed as a percent of control cells (N=3 replicates); * denotes P<0.05 for groups separated by bar. (FIGS. 3C and 3D) Effects on cell growth. Three day growth assays were performed. Data are the number of viable cells, expressed as % of control (N=3 replicates); * P<0.05 compared to control. (E) Effects on AR activation. Western blots of nuclear (N) and cytoplasmic (C) preparations of cell extracts were probed for AR, laminin 1 or α-tubulin. (FIGS. 3F and 3G) Effects on tumor outgrowth after androgen deprivation therapy. LNCaP/AR-luc cells were implanted subcutaneously (N=6 mice/cohort) or orthotopic (N=15 mice/cohort were implanted; N=5 yielded tumors) into castrate mice, treatment with KBU2046 began as noted, and weekly IVIS imaging performed. Data are tumor size, expressed as luminescence intensity. All data are expressed as mean±SEM.
# (§3) RNA was isolated and qRT/PCR performed as previously described by us (Ding et al., J Biomol Tech 18, 321-330 (2007)). Resultant data were analyzed using the 2^−ΔΔt method (Livak et al., Methods 25, 402-408 (2001)), normalized to GAPDH, for the following primer/probe sets (ABI) PSA (Hs02576345_m1) and GAPDH (Hs99999905_m1). Assays were performed in triplicate, and were repeated.
# [3] = system: prostate specific antigen (PSA); assay: PSA expression by qRT/PCR in VCaP cells; type: cell-based, human; settings: VCaP cells in androgen depleted media
# Protocol: as §1, §2, §3
# RAW 267.4 cells [4] = assay: Osteoclast morphology and maturation (actin/DAPI immunofluorescence, TRAP staining); type: cell-based, mouse; settings: Raf1-specific inhibitors; TRAP staining, multinucleated cells, resorptive cavity formation
# Text: Treatment of RAW 267.4 cells with KBU2046 induces several structural and functional changes. It reduces RANKL-mediated formation of multinucleated cells, and those that do form have lower numbers of nuclei (see 40× panels, FIG. 4B). The characteristic prominent actin ring (white arrow) surrounding the resorptive cavity (yellow arrow) is readily apparent in control cells treated with RANKL ligand, but is lacking in KBU2046-treated cells (100×, panels). Consistent with it inhibiting maturation of RAW 267.4 cells, TRAP staining is decreased in KBU2046-treated cells (FIG. 4C).
# FIG. 4 represents the KBU2046 inhibition of osteoclast function. FIG. 4A compares effects on Raf1 activation. RAW 267.4 cells were treated with RANKL for 4 days, treated with 10 μM KBU2046 for the indicated time periods, and Western blot for the denoted proteins performed. (B) Effects on cell morphology. RAW 267.4 cells were treated with RANKL and with KBU2046 for 4 days, or not, and denoted, and stained for actin (green) and DAPI (blue); white arrow denotes an actin ring, yellow arrow a resorptive cavity. Representative immunofluorescent images are depicted. (C) Tartrate resistant acid phosphatase (TRAP) expression. Cells were treated as in B, stained for TRAP (denoted by presence of red), and representative images from light microscopy depicted. (D) Bone degradation. RAW 267.4 cells were plated onto Osteo Assay plates, treated with RANKL for 6 days and with KBU2046 (or vehicle for controls) as indicated and bone surface area quantified. Data are the mean±SEM (N=3 replicates) of bone surface area, expressed as the percentage of control cells; * denotes P<0.05 compared to control.
# Raw 264.7 cells were grown in differentiation medium (described below), with or without KBU2046, for 4 days on a Chamber Slide (Nunc Lab-Tek). Chambers were washed once with PBS, followed by 10-minute fixation in cold 10% neutral-buffered formalin (VWR) and a post-fixation wash with PBS. […] The cells were then incubated for 2 hours at 4° C. in Dylight Phallodin (Cell Signaling technology, #12935) antibody diluted 1:40 in 1×PBS with 1% BSA and 0.3% Triton X-100. Subsequently, the slide was washed once with PBS, a coverslip mounted with ProLong Gold Antifade Reagent with DAPI (Cell Signaling Technology, #8961), and imaged on a Confocal Microscope (Nikon/Yokogawa Spinning Disc).
# [5] = experimental compounds with RANKL, day 6, FIGS. 6A-6L
# [6] = Raf1-specific inhibitors, Supplementary Fig. S5
smiles,measurement,setting,value
"O=C(CCOCCNC(=O)COc1ccc2c(c1)OCC(c1ccc(F)cc1)C2=O)NCCCC(O)(P(=O)(O)O)P(=O)(O)O (centres unmarked) [Compound E (n=1), (4-(3-(2-(2-((3-(4-fluorophenyl)-4-oxochroman-7-yl)oxy)acetamido)ethoxy)propanamido)-1-hydroxybutane-1,1-diyl)bis(phosphonic acid)]",osteoclast-mediated bone degradation,RAW 267.4 cells [1]; [5],inhibiting
same,survival,"PC3-luc cells; 10, 100 or 1000 ug/kg weekly intraperitoneal, from 1 week before IC injection",prolongs
same,bone destruction in the jaw,"PC3-luc cells; 10, 100 or 1000 μg/kg weekly intraperitoneal, from 1 week before IC injection, CT",inhibits
"O=C(CCOCCOCCNC(=O)COc1ccc2c(c1)OCC(c1ccc(F)cc1)C2=O)NCCCC(O)(P(=O)(O)O)P(=O)(O)O (centres unmarked) [Compound E (n=2), (1-((3-(4-fluorophenyl)-4-oxochroman-7-yl)oxy)-17-hydroxy-2,12-dioxo-6,9-dioxa-3,13-diazaheptadecane-17,17-diyl)bis(phosphonic acid)]",osteoclast-mediated bone degradation,RAW 267.4 cells [1]; [5],inhibiting
"O=C(CCOCCOCCOCCCNC(=O)COc1ccc2c(c1)OCC(c1ccc(F)cc1)C2=O)NCCCC(O)(P(=O)(O)O)P(=O)(O)O (centres unmarked) [Compound E (n=3), (1-((3-(4-fluorophenyl)-4-oxochroman-7-yl)oxy)-21-hydroxy-2,16-dioxo-7,10,13-trioxa-3,17-diazahenicosane-21,21-diyl)bis(phosphonic acid)]",osteoclast-mediated bone degradation,RAW 267.4 cells [1]; [5],inhibiting
"O=C(CCOCCNC(=O)COc1ccc2c(c1)OCC(c1ccc(F)cc1)C2=O)NCC(O)C[n+]1ccn(CC(O)(P(=O)(O)O)P(=O)(O)O)c1 (centres unmarked) [Compound G, 3-(3-(3-(2-(2-((3-(4-fluorophenyl)-4-oxochroman-7-yl)oxy)acetamido)ethoxy)propanamido)-2-hydroxypropyl)-1-(2-hydroxy-2,2-diphosphonoethyl)-1H-imidazol-3-ium]",osteoclast-mediated bone degradation,RAW 267.4 cells [1]; [5],inhibiting
"O=C(CCOCCOCCOCCNC(=O)COc1ccc2c(c1)OCC(c1ccc(F)cc1)C2=O)NCC(O)C[n+]1ccn(CC(O)([PH](=O)O)P(=O)(O)O)c1 (centres unmarked) [Compound H, (2-(3-(1-((3-(4-fluorophenyl)-4-oxochroman-7-yl)oxy)-15-(I1-oxidaneyl)-2,12-dioxo-6,9-dioxa-3,13-diazahexadecan-16-yl)-1H-3I4-imidazol-1-yl)-1-hydroxyethane-1,1-diyl)bis(hydrogen phosphonate)]",osteoclast-mediated bone degradation,RAW 267.4 cells [1]; [5],inhibiting
"O=C(CCOCCOCCOCCOCCNC(=O)COc1ccc2c(c1)OCC(c1ccc(F)cc1)C2=O)NCC(O)C[n+]1ccn(CC(O)([PH](=O)O)P(=O)(O)O)c1 (centres unmarked) [Compound I, (2-(3-(1-((3-(4-fluorophenyl)-4-oxochroman-7-yl)oxy)-18-(I1-oxidaneyl)-2,15-dioxo-6,9,12-trioxa-3,16-diazanonadecan-19-yl)-1H-3I4-imidazol-1-yl)-1-hydroxyethane-1,1-diyl)bis(hydrogen phosphonate)]",osteoclast-mediated bone degradation,RAW 267.4 cells [1]; [5],inhibiting
C[C@]1(O)CC[C@H]2[C@@H]3CCC4=CC(=O)CCC4=C3C=C[C@@]21C [Compound R1881],PSA expression,[2],significantly increased
same,PSA expression,[3],significantly increased
O=C1Nc2ccc(I)cc2/C1=C/c1cc(Br)c(O)c(Br)c1 [GW5074],osteoclast-mediated bone degradation,RAW 267.4 cells [1]; [6],inhibit
same,RANKL-induced osteoclast maturation,RAW 267.4 cells [4],inhibit
Cc1ccc(C(=O)Nc2cccc(C(F)(F)F)c2)cc1Nc1nc(-c2cccnc2)nc2c1cnn2C [NVP-BHG712],osteoclast-mediated bone degradation,RAW 267.4 cells [1]; [6],inhibit
same,RANKL-induced osteoclast maturation,RAW 267.4 cells [4],inhibit
"O=P(O)(O)C(O)(Cn1ccnc1)P(=O)(O)O [ZA, zoledronic acid]",improvement of femur bone density compared to control,"PC3-luc cells; oral 150 mg KBU2046/kg daily, intraperitoneal ZA 100 μg/kg weekly, CT",56±2.7%
Cc1ccc(NC(=O)c2cccc(N(C)C)c2)cc1NC(=O)c1ccc(O)cc1 [ZM336372],osteoclast-mediated bone degradation,RAW 267.4 cells [1]; [6],inhibit
same,RANKL-induced osteoclast maturation,RAW 267.4 cells [4],inhibit
